Experimental data published in patent publication US20250257103A1, “Antimicrobial Proteins” (The Olive Feed Corporation Limited, priority 2024, published 2025).
Where no end group is shown, it is not given here.

Assays:
Test in all cases: Candida growth inhibition, micro-broth dilution
Assay type in all cases: cell-based
Candida albicans 5314 = conditions: estimate
Method: (§1) The proteins were chemically synthesised by solid phase peptide synthesis at a purity of >90% by (GL Biochem Ltd. Shanghai, People's Republic of China). Post-synthesis, the proteins were stored lyophilised at −20° C. to maintain their integrity. The proteins were weighed and dissolved in ultrapure water as a stock solution prior to experimentation. For all assays a 1:1 dilution was made with double-strength broth, the composition of which was tailored to the specific requirements of the organism.
(§2) Antifungal activity was assessed by a micro-broth dilution method modified by Handcock for cationic peptides and proteins. Given the propensity of cationic peptides and proteins to bind polystyrene, 96-well polypropylene plates were used as an alternative. Candida species MIC analysis were performed using ½ strength potato dextrose broth (PDB).
(§3) 96-well flat-bottomed polypropylene plates were prepared 30 mins prior to inoculation. The outer wells of the plate were filled with 200 μl of diH2O to mitigate evaporation in test lanes during incubation with low volumes and for prolonged periods. Given the high cost of the synthetic proteins minimal volume of 100 μl was utilised, and preliminary testing was conducted in duplicate. 50 μl of ½ strength PDB was dispensed into all remaining wells except column 3. 100 μl was added to column 2 and acting as a ‘broth only’ sterile control. Subsequently, 100 μl of the top standard protein solution, prepared at a 2× concentration (500 μg/ml) and suspended in half-strength PDB, was added to column 3. Using a multichannel pipette, 50 μl from each well in column 3 (rows B through G) were mixed with an equal volume of broth in column 4. This procedure was repeated by serial diluting the protein down to column 10. The final […] was not transferred to lane 11 but was instead disposed of.
(§4) Candida species were grown over 48 hours on ½ strength potato dextrose agar (PDA) at a temperature of 35° C. Cells were harvested directly from the agar plates and resuspended in 2 ml of ½ PDB. The cell concentration was determined using a haemocytometer, and subsequently, cells were diluted to 1×10^5 cells/ml in ½ strength PDB, resulting in a concentration of 5,000 cells per well. 50 μl of the diluted cell suspension was added to the wells in columns 3-11, working backwards from the lowest protein concentration. This step ensured a total volume of 100 μl in each well, giving a final top standard protein concentration of 250 μg/ml in the assay. Column 11 was designated as the growth control, containing cells only.
(§5) Absorbance readings were taken at time zero (T=0) at a wavelength of 595 nm for the analysis of all Candida spp. Subsequently, all plates were incubated at 35° C. for 24 hrs. To ensure uniform resuspension of cells, a multichannel pipette was used to agitate the cell suspension. A second series of absorbance measurements at 595 nm was conducted at T=24, enabling a comprehensive assessment of growth over the 24-hour period).
(§6) The activities of synthetic plant-like defensin analogues Olv1 and Olv2 were assessed against Candida albicans sc5314 (Table 2, FIG. 5A), Candida parapsilosis (Table 3, FIG. 5B), Candida tropicalis (Table 4, FIG. 5C) and Candida krusei (Table 5, FIG. 5D).
(§7) Log IC50: The logarithm of the concentration at which 50% inhibition of growth is observed, Hill-slope: Describes the steepness of the curve; a steeper slope indicates a more cooperative binding to the target and a sharper transition between the non-effective and effective doses and IC50: The actual concentration at which 50% inhibition is achieved, derived from the Log IC50.

Candida parapsilosis = conditions: estimate; for Hill-slope: dose-response curve; for IC50 / LogIC50: growth inhibition, 24 hrs, 35° C., ½ strength PDB
Method: as §1, §2, §3, §4, §5, §6, §7

Candida tropicalis = conditions: estimate; for Hill-slope: dose-response curve
Method: as §1, §2, §3, §4, §5, §6, §7

Candida krusei = system: Candida krusei; design: LogIC50: unit not given here; conditions: estimate; for Hill-slope: dose-response curve; for IC50 / LogIC50: growth inhibition, 24 hrs, 35° C., ½ strength PDB
Method: as §1, §2, §3, §4, §5, §6, §7

[1] = Candida albicans 5314, growth inhibition, 24 hrs, 35° C., ½ strength PDB
[2] = growth inhibition, 24 hrs, 35° C., ½ strength PDB

RTCESQSHRFKGSCVSKSNCAAVCQTEGFPDGYCRGFRRRCFCSKHC (cysteines drawn unpaired) [Olv1]
IC50 (Candida albicans 5314; [1]): 94.113 µg/mL
LogIC50 (Candida albicans 5314; [1]): 1.974
Hill-slope (Candida parapsilosis): −3.181
IC50 (Candida parapsilosis): 56.919 µg/mL
LogIC50 (Candida parapsilosis): 1.755
Hill-slope (Candida tropicalis): −9.410
LogIC50 (Candida tropicalis; [2]): 1.602 log10(μg/ml)
Hill-slope (Candida krusei): −11.209
IC50 (Candida krusei): 90.642 µg/mL
LogIC50 (Candida krusei): 1.957

RVCSRLSKTWSGLCLNSGNCNRQCRNWEGALRGACHKRGWGFACFCYRKC (cysteines drawn unpaired) [Olv2]
Hill-slope (Candida albicans 5314; Candida albicans 5314, dose-response curve): −11.59
LogIC50 (Candida albicans 5314; [1]): 1.866
Hill-slope (Candida parapsilosis): −3.474
IC50 (Candida parapsilosis): 54.233 µg/mL
LogIC50 (Candida parapsilosis): 1.734
Hill-slope (Candida tropicalis): −4.862
IC50 (Candida tropicalis; [2]): 26.098 µg/mL
LogIC50 (Candida tropicalis; [2]): 1.417 log10(μg/ml)
Hill-slope (Candida krusei): −10.527
IC50 (Candida krusei): 40.346 µg/mL
LogIC50 (Candida krusei): 1.606
